In ChEMBL document CHEMBL5154748, “Discovery of novel 3-butyl-6-benzyloxyphthalide Mannich base derivatives as multifunctional agents against Alzheimer's disease” (Bioorg Med Chem, 2022):
The source made the active and inactive calls. No cut-off for these calls is given here.

Tests used:
[1] = Antioxidant activity assessed as trolox equivalent of ORAC radical scavenging activity by ORAC-FL assay; type: functional
Acetylcholinesterase [2] = biological target: Acetylcholinesterase (Electrophorus electricus, UniProt O42275); assay: Inhibition of Electric eel AChE by Ellman's method
Acetylcholinesterase (Electrophorus electricus, UniProt O42275), sequence (O42275 whole entry): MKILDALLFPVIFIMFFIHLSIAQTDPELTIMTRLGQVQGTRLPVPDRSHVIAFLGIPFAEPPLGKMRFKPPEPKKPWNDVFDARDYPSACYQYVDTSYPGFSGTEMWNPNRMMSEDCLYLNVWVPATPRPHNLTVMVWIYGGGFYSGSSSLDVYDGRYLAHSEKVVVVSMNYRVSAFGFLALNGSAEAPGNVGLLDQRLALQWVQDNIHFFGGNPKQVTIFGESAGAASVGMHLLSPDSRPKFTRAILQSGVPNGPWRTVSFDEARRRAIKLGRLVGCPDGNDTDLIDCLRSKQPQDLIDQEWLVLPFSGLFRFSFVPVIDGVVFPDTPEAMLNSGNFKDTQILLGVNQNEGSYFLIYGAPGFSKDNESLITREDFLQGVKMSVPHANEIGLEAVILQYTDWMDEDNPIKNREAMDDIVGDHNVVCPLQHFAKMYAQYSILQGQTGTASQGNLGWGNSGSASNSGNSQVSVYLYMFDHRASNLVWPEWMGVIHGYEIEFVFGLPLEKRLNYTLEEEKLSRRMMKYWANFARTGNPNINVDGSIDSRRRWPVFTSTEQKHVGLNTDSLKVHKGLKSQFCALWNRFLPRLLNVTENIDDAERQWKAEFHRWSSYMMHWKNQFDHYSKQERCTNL

[3] = biological target: T1, Amine oxidase [flavin-containing] A (Homo sapiens, UniProt P21397); assay: Inhibition of human MAO-A at 10 uM by fluorescence assay
T1 sequence (P21397 whole entry): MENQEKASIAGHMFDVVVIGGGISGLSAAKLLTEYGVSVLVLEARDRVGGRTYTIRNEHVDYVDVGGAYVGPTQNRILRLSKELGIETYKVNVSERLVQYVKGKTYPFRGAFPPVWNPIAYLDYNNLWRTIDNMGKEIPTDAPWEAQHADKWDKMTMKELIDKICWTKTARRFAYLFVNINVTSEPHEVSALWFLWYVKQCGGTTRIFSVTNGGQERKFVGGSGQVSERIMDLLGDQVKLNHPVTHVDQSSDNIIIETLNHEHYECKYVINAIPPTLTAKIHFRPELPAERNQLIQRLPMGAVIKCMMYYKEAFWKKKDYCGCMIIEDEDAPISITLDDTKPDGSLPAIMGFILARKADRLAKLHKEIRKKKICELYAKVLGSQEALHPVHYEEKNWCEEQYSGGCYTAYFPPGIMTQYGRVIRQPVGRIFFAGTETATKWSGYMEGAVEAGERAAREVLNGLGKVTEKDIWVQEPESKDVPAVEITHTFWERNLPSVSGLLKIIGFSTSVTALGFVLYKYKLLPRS

[4] = biological target: Butyrylcholinesterase (Rattus norvegicus) (UniProt Q9JKC1); assay: Inhibition of Rat BuChE at 10 uM by Ellman's method
Butyrylcholinesterase (Rattus norvegicus), sequence (Q9JKC1 as listed by the source): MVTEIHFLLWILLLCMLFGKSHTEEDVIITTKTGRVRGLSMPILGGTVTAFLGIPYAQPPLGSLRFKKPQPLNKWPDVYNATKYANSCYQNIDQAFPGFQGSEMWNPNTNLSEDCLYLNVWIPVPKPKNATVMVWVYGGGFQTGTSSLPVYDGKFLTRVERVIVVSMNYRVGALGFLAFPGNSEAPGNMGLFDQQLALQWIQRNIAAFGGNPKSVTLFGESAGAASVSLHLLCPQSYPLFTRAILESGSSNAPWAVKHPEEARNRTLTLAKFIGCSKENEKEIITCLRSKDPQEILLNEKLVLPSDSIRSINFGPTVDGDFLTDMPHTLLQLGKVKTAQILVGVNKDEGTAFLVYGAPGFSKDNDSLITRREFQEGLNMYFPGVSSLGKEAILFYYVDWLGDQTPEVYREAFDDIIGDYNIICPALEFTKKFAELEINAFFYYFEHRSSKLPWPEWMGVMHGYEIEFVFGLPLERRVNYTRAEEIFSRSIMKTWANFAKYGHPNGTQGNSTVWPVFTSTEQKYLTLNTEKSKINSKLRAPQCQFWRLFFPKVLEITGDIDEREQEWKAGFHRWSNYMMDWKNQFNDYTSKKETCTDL

Acetylcholinesterase [5] = biological target: T2, Acetylcholinesterase (Homo sapiens, UniProt P22303); assay: Inhibition of Human AChE by Ellman's method
T2 sequence (P22303 whole entry): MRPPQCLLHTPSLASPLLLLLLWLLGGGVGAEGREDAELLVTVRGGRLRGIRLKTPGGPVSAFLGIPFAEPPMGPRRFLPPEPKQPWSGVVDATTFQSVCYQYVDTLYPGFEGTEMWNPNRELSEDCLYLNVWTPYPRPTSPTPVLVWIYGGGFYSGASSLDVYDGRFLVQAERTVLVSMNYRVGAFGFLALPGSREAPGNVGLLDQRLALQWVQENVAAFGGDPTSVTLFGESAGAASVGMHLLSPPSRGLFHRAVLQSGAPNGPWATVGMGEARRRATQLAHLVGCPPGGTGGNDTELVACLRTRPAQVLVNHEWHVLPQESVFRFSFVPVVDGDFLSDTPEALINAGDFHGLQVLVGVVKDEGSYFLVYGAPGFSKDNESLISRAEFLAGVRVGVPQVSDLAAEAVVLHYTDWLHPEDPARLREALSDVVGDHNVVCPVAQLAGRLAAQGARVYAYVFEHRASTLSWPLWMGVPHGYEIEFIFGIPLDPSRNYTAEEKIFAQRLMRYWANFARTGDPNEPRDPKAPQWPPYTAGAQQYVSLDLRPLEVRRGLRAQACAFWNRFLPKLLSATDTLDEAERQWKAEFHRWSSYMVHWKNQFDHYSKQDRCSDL

[6] = biological target: T3, Amine oxidase [flavin-containing] B (Homo sapiens, UniProt P27338); assay: Inhibition of human MAO-B by fluorescence assay
T3 sequence (P27338 whole entry): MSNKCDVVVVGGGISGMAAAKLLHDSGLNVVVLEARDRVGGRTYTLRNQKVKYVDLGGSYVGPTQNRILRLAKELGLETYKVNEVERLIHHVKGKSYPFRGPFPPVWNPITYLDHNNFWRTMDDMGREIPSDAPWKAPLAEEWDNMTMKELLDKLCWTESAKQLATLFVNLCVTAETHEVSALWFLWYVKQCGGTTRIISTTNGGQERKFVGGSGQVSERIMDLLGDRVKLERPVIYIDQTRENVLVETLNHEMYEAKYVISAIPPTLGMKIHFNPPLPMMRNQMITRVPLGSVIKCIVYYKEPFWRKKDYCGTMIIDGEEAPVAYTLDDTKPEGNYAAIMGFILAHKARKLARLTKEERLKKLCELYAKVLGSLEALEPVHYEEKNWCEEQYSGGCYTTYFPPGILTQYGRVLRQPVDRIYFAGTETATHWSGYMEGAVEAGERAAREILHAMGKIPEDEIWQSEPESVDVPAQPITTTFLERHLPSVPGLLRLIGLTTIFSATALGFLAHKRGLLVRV

[7] = biological target: Acetylcholinesterase (Electrophorus electricus) (UniProt O42275); assay: Inhibition of Electric eel AChE at 10 uM by Ellman's method
Acetylcholinesterase (Electrophorus electricus), sequence (O42275 24-633 limits assumed): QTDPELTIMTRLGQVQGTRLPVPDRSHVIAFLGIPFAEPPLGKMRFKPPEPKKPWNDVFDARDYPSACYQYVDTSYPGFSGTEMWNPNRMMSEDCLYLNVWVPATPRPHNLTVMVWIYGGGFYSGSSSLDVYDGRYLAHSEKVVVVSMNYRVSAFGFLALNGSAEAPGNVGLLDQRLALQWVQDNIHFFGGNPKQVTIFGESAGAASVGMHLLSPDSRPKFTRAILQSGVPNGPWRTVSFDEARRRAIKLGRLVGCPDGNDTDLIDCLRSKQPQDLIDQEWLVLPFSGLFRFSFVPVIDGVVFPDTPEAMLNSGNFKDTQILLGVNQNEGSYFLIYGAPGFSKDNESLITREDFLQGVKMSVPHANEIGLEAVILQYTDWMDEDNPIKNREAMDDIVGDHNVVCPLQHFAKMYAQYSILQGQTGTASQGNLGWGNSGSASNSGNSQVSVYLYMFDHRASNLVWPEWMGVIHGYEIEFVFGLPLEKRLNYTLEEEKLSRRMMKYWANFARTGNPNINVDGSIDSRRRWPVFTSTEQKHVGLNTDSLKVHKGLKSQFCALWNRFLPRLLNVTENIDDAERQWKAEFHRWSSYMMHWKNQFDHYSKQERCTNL

[8] = biological target: T3, Amine oxidase [flavin-containing] B; assay: Inhibition of human MAO-B at 10 uM by fluorescence assay
BV-2 [9] = assay: Antineuroinflammatory activity in mouse BV-2 cells assessed as inhibition of LPS-induced TNF-alpha production at 2.5 uM after 24 hrs by ELISA; type: functional
BV-2 [10] = assay: Antineuroinflammatory activity in mouse BV-2 cells assessed as inhibition of LPS-induced TNF-alpha production at 0.5 uM after 24 hrs by ELISA; type: functional
BV-2 [11] = assay: Inhibition of LPS-induced ROS production in mouse BV-2 cells at 10 uM by DCFH-DA staining based fluorescence analysis; type: functional, cell-based
PC-12 [12] = assay: Neuroprotective against H2O2-induced rat PC-12 cell injury assessed as cell viability at 10 uM by MTT assay (reference value: 48.0%); type: functional; conditions: read-out: Activity
BV-2 [13] = assay: Antineuroinflammatory activity in mouse BV-2 cells assessed as inhibition of LPS-induced NO production at 2.5 uM after 24 hrs by Griess reagent based assay; type: functional
BV-2 [14] = assay: Antineuroinflammatory activity in mouse BV-2 cells assessed as inhibition of LPS-induced NO production at 0.5 uM after 24 hrs by Griess reagent based assay; type: functional
BV-2 [15] = assay: Antineuroinflammatory activity in mouse BV-2 cells assessed as inhibition of LPS-induced NO production at 10 uM after 24 hrs by Griess reagent based assay; type: functional
BV-2 [16] = assay: Antineuroinflammatory activity in mouse BV-2 cells assessed as inhibition of LPS-induced TNF-alpha production at 10 uM after 24 hrs by ELISA; type: functional
[17] = Metal chelating activity assessed as Cu2+-compound complex formation at 37.5 uM by UV-visible spectrophotometry
BV-2 [18] = assay: Cytotoxicity against mouse BV-2 cells at 10 uM in presence of LPS by MTT method; type: toxicity, cell-based; conditions: bv-2, 10 µM
PC-12 [19] = assay: Cytotoxicity against rat PC12 cells assessed as decrease in cell viability at 100 uM by MTT assay; type: toxicity, cell-based; conditions: pc-12, 100 µM
BV-2 [20] = assay: Inhibition of LPS-induced ROS production in mouse BV-2 cells at 2.5 uM by DCFH-DA staining based fluorescence analysis; type: functional, cell-based
[21] = Inhibition of reactive oxygen species production using Cu-ascorbate redox system by coumarin-3-carboxylic acid dye based fluorescence analysis; type: functional
BV-2 [22] = assay: Cytotoxicity against mouse BV-2 cells at 10 uM by MTT method; type: toxicity, cell-based; conditions: bv-2, 10 µM
PC-12 [23] = assay: Neuroprotective against H2O2-induced rat PC-12 cell injury assessed as cell viability at 4 uM by MTT assay (reference value: 48.0%); type: functional; conditions: read-out: Activity
PC-12 [24] = assay: Neuroprotective against H2O2-induced rat PC-12 cell injury assessed as cell viability at 25 uM by MTT assay (reference value: 48.0%); type: functional; conditions: read-out: Activity
Acetylcholinesterase [25] = biological target: T2, Acetylcholinesterase; assay: Mixed type inhibition of AChE (unknown origin) by Lineweaver-Burk plot analysis
BV-2 [26] = assay: Inhibition of LPS-induced ROS production in mouse BV-2 cells assessed as complete reversal at 10 uM by DCFH-DA staining based fluorescence analysis; type: functional, cell-based

Row | Structure (SMILES) | Activity [1] | IC50 (Acetylcholinesterase [2]) [µM] | inhibition at 10 µM [3] [%] | inhibition [4] [%] | IC50 (Acetylcholinesterase [5]) [µM] | IC50 [6] [µM] | inhibition at 10 µM [8] [%] | other results
1 | CCCCC1OC(=O)c2cc(OCc3ccc(CN4CCCC4)c(O)c3)ccc21 (configuration not stated) | 1.73 | 0.89 | 23.7 | 10 | 3.92 | 0.94 |  | 
2 | CCCCC1OC(=O)c2cc(OCc3ccc(CN4CCOCC4)c(O)c3)ccc21 (configuration not stated) | 1.12 | 8.37 | 27.9 | < 5 | 3.32 | 1.42 |  | 
3 | CCCCC1OC(=O)c2cc(OCc3cccc(CN4CCN(C)CC4)c3O)ccc21 (configuration not stated) | 2.33 |  | 12.5 | < 5 |  |  | 32.3 | inhibition [7]: 29.4%
4 | CCCCC1OC(=O)c2cc(OCc3cccc(CN4CCN(CC)CC4)c3O)ccc21 (configuration not stated) | 1.67 |  | 12.8 | < 5 |  |  | 28.8 | inhibition [7]: 20.7%
5 | CCCCC1OC(=O)c2cc(OCc3ccc(CN(C)C)c(O)c3)ccc21 (configuration not stated) | 1.62 | 5.39 | 29 | 11.8 | 8.78 | 6.9 |  | 
6 | CCCCC1OC(=O)c2cc(OCc3cccc(CN4CCCCC4)c3O)ccc21 (configuration not stated) | 1.84 | 14.5 | 20 | 14.2 |  |  | 12.8 | 
7 | CCCCC1OC(=O)c2ccccc21 (racemic) [RAC-3-N-BUTYLPHTHALIDE] | 0.21 |  |  |  |  |  |  | inhibition at 2.5 µM (BV-2 [9]): 27.6%; inhibition at 0.5 µM (BV-2 [10]): 15.2%; inhibition (BV-2 [11]): Active; viability at 10 µM (PC-12 [12]): 64.1%; inhibition at 2.5 µM (BV-2 [13]): 22.9%; inhibition at 0.5 µM (BV-2 [14]): 13.4%; inhibition at 10 µM (BV-2 [15]): 37.2%; inhibition at 10 µM (BV-2 [16]): 43.7%
8 | CCCCC1OC(=O)c2cc(OCc3cccc(CN(CC)Cc4ccccc4)c3O)ccc21 (configuration not stated) | 1.86 |  | 5.4 | < 5 |  |  | 12.5 | inhibition [7]: 15.3%
9 | CCCCC1OC(=O)c2cc(OCc3ccc(CN4CCN(C)CC4)c(O)c3)ccc21 (configuration not stated) | 0.96 | 13.6 | 22.5 | < 5 | 23.8 | 2.39 |  | 
10 | CCCCC1OC(=O)c2cc(OCc3cccc(CN4CCOCC4)c3O)ccc21 (configuration not stated) | 2.14 | 22.4 | 18.4 | 5.8 |  | 7.63 |  | 
11 | CCCCC1OC(=O)c2cc(OCc3ccc(CN(CC)Cc4ccccc4)c(O)c3)ccc21 (configuration not stated) | 1.15 | 20.5 | 14.8 | 5.6 |  | 1.96 |  | 
12 | CCCCC1OC(=O)c2cc(OCc3ccc(CN(CC)CC)c(O)c3)ccc21 (configuration not stated) | 1.53 | 0.64 | 26.3 | 8.1 | 0.35 | 6.81 |  | 
13 | CCCCC1OC(=O)c2cc(OCc3ccccc3O)ccc21 (configuration not stated) | 1.03 |  | 30.3 | < 5 |  | 2.07 |  | inhibition [7]: 20.3%
14 | CCCCC1OC(=O)c2cc(OCc3ccc(CN4CCN(CC)CC4)c(O)c3)ccc21 (configuration not stated) | 0.77 | 14.8 | 17.5 | 6.5 |  | 2.53 |  | 
15 | CCCCC1OC(=O)c2cc(OCc3cccc(CN4CCCC4)c3O)ccc21 (configuration not stated) | 2.38 | 26.7 | 23.5 | 5.8 |  |  | 6.9 | 
16 | CCCCC1OC(=O)c2cc(OCc3ccc(CN4CCCCC4)c(O)c3)ccc21 (configuration not stated) | 1.86 | 0.087 | 18.1 | < 5 | 0.041 | 0.3 |  | Activity [17]: Active; Activity (BV-2 [18]): Non-Toxic; inhibition at 2.5 µM (BV-2 [9]): 47.8%; inhibition at 0.5 µM (BV-2 [10]): 32.7%; Activity (PC-12 [19]): Toxic; viability at 10 µM (PC-12 [12]): 71.1%; inhibition at 2.5 µM (BV-2 [13]): 43.5%; inhibition (BV-2 [20]): Active; inhibition [21]: Active; inhibition at 0.5 µM (BV-2 [14]): 30.4%; Activity (BV-2 [22]): Non-Toxic; inhibition at 10 µM (BV-2 [15]): 58.9%; viability at 4 µM (PC-12 [23]): 56.3%; inhibition at 10 µM (BV-2 [16]): 63.2%; viability at 25 µM (PC-12 [24]): 80.2%; inhibition (Acetylcholinesterase [25]): Active; inhibition (BV-2 [26]): Active
17 | CCCCC1OC(=O)c2cc(OCc3cccc(O)c3)ccc21 (configuration not stated) | 0.88 |  | 29.3 | < 5 |  | 3.3 |  | inhibition [7]: 38.6%
18 | CCCCC1OC(=O)c2cc(OCc3cccc(CN(CC)CC)c3O)ccc21 (configuration not stated) | 2.02 | 20.9 | 20.4 | < 5 |  |  | 5.2 | 
